15 compounds from patent US9199983B2, “3-aryl-6-aryl-[1,2,4]triazolo[4,3-α]pyridines as inhibitors of cell proliferation and the use thereof” (priority 2010, dated 2015) can be followed below.

By IC50 is commonly meant the point on the concentration scale where inhibition reaches its midpoint. Usually EC50 stands for the concentration giving half of the maximal effect.

Assay [1] concerns liver cancer cell line HepG2. Put plainly: MTT cancer cell cytotoxicity assay, HepG2. The conditions noted are these: HepG2 cells, 48-72 h. The format is cell-based, human. The method, boiled down: (§1)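 Seeding: HepG2 and A549 at 3000, SMMC7721 at 5000, B16F10 at 2000 cells/well, attached overnight. Compounds (10 μM to 1 nM, triplicate) were applied for 48-72 h at 37 °C, followed by 4 h MTT. A550 minus A660 was fitted for IC50, with untreated wells as maximum and reference-drug total kill as background.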

Assay [2] concerns Human lung cancer cell line A549. Put plainly: MTT cancer cell cytotoxicity assay, A549. Format: cell-based. The conditions noted are these: A549 cells, 48-72 h. The method, boiled down: as §1
Assay [3] deals with liver cancer cell line SMMC7721. Put plainly: MTT cancer cell cytotoxicity assay, SMMC7721. The conditions noted are these: 48-72 h. Format: cell-based, human. The essentials:
as §1

Assay [4] relates to breast cancer cell line T47D. Briefly: MTT cancer cell cytotoxicity assay, T47D. Format: cell-based, human. As to conditions: T47D cells, 48-72 h. The method, boiled down: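 Human T47D breast cancer cells, cultured per ATCC recommendations with 10% fetal bovine serum and penicillin/streptomycin, were plated at 3000 cells/well in 96-well plates. After overnight attachment they were exposed in triplicate to compounds (10 μM to 1 nM) for 48-72 h. MTT was then added for 4 h and the formazan dissolved in DMSO. Absorbance at 550 nm minus 660 nm was fitted in Prism 5 to give IC50.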

Assay [5] concerns mouse melanoma cell line B16F10. Put plainly: MTT cancer cell cytotoxicity assay, B16F10. The format is cell-based. The conditions noted are these: 48-72 h. How it is done: Identification of 3-(2-methoxyphenyl)-6-(4-methoxyphenyl)-[1,2,4]triazolo[4,3-a]pyridine and analogs as inhibitors of cell proliferation that were evaluated with standard MTT cancer cell cytotoxicity assay (IC50)
Human lung cancer cell line A549, breast cancer cell line T47D, liver cancer cell lines HepG2 and SMMC7721 as well as a mouse melanoma cell line B16F10 were used in the study. The cells were cultured in corresponding growth media recommended by American Type Culture Collection (ATCC) with the supplementation of penicillin G (100 U/ml)/streptomycin (100 µg/ml), and 10% fetal bovine serum (Hangzhou Sijiqing Biological Engineering Materials, Co., Ltd. China) at 37° C. in a humidified atmosphere containing 5% CO2. Cells at about 80% confluency were harvested by trypsinization. Cells were centrifuged, re-suspended in fresh growth media and counted. Corresponding numbers of cells were seeded to 96-well cell culture plates (HepG2 cell, T-47D and A549 cells at 3000 cells/well, SMMC-7721 cells at 5000 cells/well and B16F10 cells at 2000 cells/well) in a total volume of […]. Cells were incubated in CO2 incubator over night to allow the cells to attach. In next day, […] of medium containing testing (from 10 μM to 1 nM) or reference compounds was added to each well of the cells. Media without compound were used as 100% control. Cells were treated with each concentration of compounds in triplicates to ensure data accuracy. Cells were incubated with compounds in CO2 incubator for an additional 48-72 h at 37° C. After incubation, cells were removed from the CO2 incubator and […] of 5 mg/ml MTT (3-(4,5-dimethylthiazole-2-yl)-2,5-diphenyltetrazoliumbromide, Sigma) solution in PBS was added to each well. Cells were returned to CO2 incubator and incubated for additional 4 h. After the incubation, media were removed by aspiration and […] DMSO was added to each well. Plates were sealed with aluminum foil and shaked mildly on an orbital shaker for 10 min at room temperature. The absorption was measured at 550 nm with a plate reader (Varioskan Flash, Thermo Fisher Scientific) with 660 nm reading used as background control. The relative absorbance readings were calculated by subtracting readings at 660 nm from that at 550 nm. The relative absorbance was plotted again the concentrations of the testing compounds and the plots were fitted with a one-site lg(IC50) equation using Prism 5 software (GraphPad Software, Inc). The equation used in the curve fitting is as follows: relative absorbance reading=background reading+(maximal reading−brackground reading)/(1+10 ^(compound concentration-log IC50)). The background reading used in the calculation was obtained with 100% cell death using a reference anticancer drug, whereas the maximal reading was obtained in the well with no added compound. The IC50 value calculated from the equation represents the cytotoxic potency of a particular compound.

In assay [6] the test system is caspase-3 activation. Put plainly: Caspase-3 activation (apoptosis induction) in T-47D cells. Format: cell-based. As to conditions: Homo sapiens; T47D cells, 24 h treatment; read-out: EC50 to induce caspase-3 activation, T47D. The method, then: Identification of 3-(2-methoxyphenyl)-6-(4-methoxyphenyl)-[1,2,4]triazolo[4,3-a]pyridine and analogs as inducers of apoptosis in solid tumor cells
Human breast cancer cell line T-47D and lung cancer cell line A549, growing in DMEM/F12+10% FBS media were seeded to a density of 20000 cells/well in 96-well cell culture plate and grew overnight (18-24 h) in CO2 cell culture incubator at 37° C. Next day the medium were removed by aspiration and […] fresh growth media was added to each well followed by […] of growth media containing 10× concentration of reference or testing compounds with 10% DMSO. Twenty four hours later, cell culture plates were centrifuged at 1000 g for 5 min and the supernatant was removed by emptying contents into a reservoir. Fifty μl of Lysis Buffer (10 mM Tris, pH7.5, 0.1M NaCl, 1 Mm EDTA, 0.01% Triton X-100) was added to each well and the plates were incubated with gentle agitation on an orbital shaker at 4° C. for 30 min. The plates were then centrifuged at 1000 g for 10 min at 4° C. and 20 μl of the supernatant was transferred from each well to a corresponding well in a black 384-well. Twenty μl of caspase-3 assay buffer (20 mM PIPES, pH7.4, 4 Mm EDTA and 0.2% CHAPS) containing 20 μM fluorogenic caspase-3 substrate ((Ac-DEVD)2-R110, AnaSpec Cat #60304-5) was added to each well. The samples were mixed by agitation and incubated at 37° C. for 3 h. The fluorescent intensity of each well was read on a fluorescent plate reader (Varioskan Flash, Thermo Fisher Scientific) with excitation wavelength at 496 nm and emission wavelength at 520 nm. The activity of compounds on caspase-3 activation was determined by plotting the relative fluorescent unit (RFU) against the testing concentrations of the compounds. The EC50 values were determined by fitting the above responding curves into Prism sigmoidal dose-response equation (GraphPad Software, Inc).

Where [7] appears, read: Homo sapiens, SMMC-7721, SMMC7721 cells.
Where [8] appears, read: Mus musculus, B16-F10, B16F10 cells.

Each structure is given as a SMILES string.

As for `COc1ccccc1-c1nnc2ccc(-c3ccc([N+](=O)[O-])cc3)cn12` [Example 39, 3-(2-Methoxyphenyl)-6-(4-nitrophenyl)-[1,2,4]triazolo[4,3-a]pyridine], the IC50 in assay [1] (Homo sapiens) is 3250 nM; in assay [2] (Homo sapiens), 3000 nM; in assay [3] (setting [7]), 5440 nM; in assay [4] (Homo sapiens) it was above 10000 nM; in assay [5] (setting [8]), above 10000 nM.
For the compound `COc1cc(Cl)ccc1-c1nnc2ccc(-c3ccc(C)c(N)c3)cn12` [Example 90, 6-(3-Amino-4-methylphenyl)-3-(4-chloro-2-methoxyphenyl)-[1,2,4]triazolo[4,3-a]pyridine], the IC50 in assay [1] (Homo sapiens) was found to be 5.4 nM; in assay [2] (Homo sapiens) it was 7.1 nM; in assay [3] (setting [7]), 2.3 nM; in assay [4] (Homo sapiens) it was 5.5 nM; in assay [5] (setting [8]) it was 4.6 nM.
Regarding `COc1ccccc1-c1nnc2ccc(-c3ccc(OC(F)(F)F)cc3)cn12` [Example 11, 3-(2-Methoxyphenyl)-6-(4-trifluoromethoxyphenyl)-[1,2,4]trizolo[4,3-a]pyridine], the IC50 in assay [1] was 5290 nM; in assay [2] it was above 10000 nM; in assay [3] (SMMC7721 cells), 2910 nM; in assay [4], above 10000 nM; in assay [5] (B16F10 cells), 5000 nM.
`CCCCCCOc1ccc(-c2ccc3nnc(-c4ccccc4OC)n3c2)cc1` [Example 34, 6-(4-Hexyloxyphenyl)-3-(2-methoxyphenyl)-[1,2,4]triazolo[4,3-a]pyridine]: the IC50 in assay [1] (Homo sapiens), in assay [2] (Homo sapiens), in assay [3] (setting [7]), in assay [4] (Homo sapiens) and in assay [5] (setting [8]) was above 10000 nM each time.
Take `COc1ccccc1-c1nnc2ccc(-c3ccc(OC(C)C)cc3)cn12` [Example 6, 6-(4-Isopropoxyphenyl)-3-(2-methoxyphenyl)-[1,2,4]triazolo[4,3-a]pyridine]: the IC50 in assay [1] (Homo sapiens) turned out to be 1160 nM; in assay [2] (Homo sapiens), 1060 nM; in assay [3] (setting [7]), 535 nM; in assay [4] (Homo sapiens), 697 nM; in assay [5] (setting [8]) it was 591 nM.
For `COc1ccccc1-c1ccc2nnc(-c3ccccc3OC)n2c1` [Example 3, 3,6-Bis(2-methoxyphenyl)-[1,2,4]triazolo[4,3-a]pyridine] the same measures were above 10000 nM, above 10000 nM, above 10000 nM, above 10000 nM and above 10000 nM.
`COc1cc(C)ccc1-c1nnc2ccc(-c3ccc(C)c(N)c3)cn12` [Example 91, 6-(3-Amino-4-methylphenyl)-3-(4-methyl-2-methoxyphenyl)-[1,2,4]triazolo[4,3-a]pyridine]: the half-inhibitory concentration (IC50) in assay [1] (Homo sapiens) is 39 nM; in assay [2] (Homo sapiens) it was 42 nM; in assay [3] (setting [7]), 13 nM; in assay [4] (Homo sapiens) it was 31 nM; in assay [5] (setting [8]), 23 nM.
With `COc1ccccc1-c1nnc2ccc(-c3ccc(N(C)C)cc3)cn12` [Example 17, 6-(4-Dimethylaminophenyl)-3-(2-methoxyphenyl)-[1,2,4]triazolo[4,3-a]pyridine], the IC50 in assay [1] (Homo sapiens) is 48 nM; in assay [2] (Homo sapiens), 29 nM; in assay [3] (setting [7]), 14 nM; in assay [4] (Homo sapiens), 65 nM. The EC50 in assay [6] turned out to be 86 nM.
Turning to `COc1ccccc1-c1nnc2ccc(-c3ccc(OC)c([N+](=O)[O-])c3)cn12` [Example 40, 6-(4-Methoxy-3-nitrophenyl)-3-(2-methoxyphenyl)-[1,2,4]triazolo[4,3-a]pyridine], the IC50 is 2460 nM in assay [1] (Homo sapiens); 2660 nM in assay [2] (Homo sapiens); 72 nM in assay [3] (setting [7]); 896 nM in assay [4] (Homo sapiens); above 10000 nM in assay [5] (setting [8]).
For the compound `COc1cccc(-c2ccc3nnc(-c4ccccc4OC)n3c2)c1` [Example 2, 3-(2-Methoxyphenyl)-6-(3-methoxyphenyl)-[1,2,4]triazolo[4,3-a]pyridine], the IC50 in assay [1] (Homo sapiens) was 189 nM; in assay [2] (Homo sapiens), 252 nM; in assay [3] (setting [7]), 79 nM; in assay [4] (Homo sapiens), 184 nM; in assay [5] (setting [8]), 152 nM.
Regarding `CNc1ccc(-c2ccc3nnc(-c4ccc(Cl)cc4OC)n3c2)cc1` [Example 88, 3-(4-Chloro-2-methoxyphenyl)-6-(4-methylaminophenyl)-[1,2,4]triazolo[4,3-a]pyridine], the IC50 in assay [1] (Homo sapiens) was determined as 6 nM; in assay [2] (Homo sapiens), 4.4 nM; in assay [3] (setting [7]), 1.8 nM; in assay [4] (Homo sapiens), 3.6 nM; in assay [5] (setting [8]), 5.1 nM.
As to `CNc1ccc(-c2ccc3nnc(-c4ccc(C)cc4OC)n3c2)cc1` [Example 92, 6-(4-Methylaminophenyl)-3-(4-methyl-2-methoxyphenyl)-[1,2,4]triazolo[4,3-a]pyridine], the IC50 was 23 nM in assay [1] (Homo sapiens); 11 nM in assay [2] (Homo sapiens); 23 nM in assay [3] (setting [7]); 8.8 nM in assay [4] (Homo sapiens); 7.7 nM in assay [5] (setting [8]).
As for `COc1ccccc1-c1nnc2ccc(-c3ccccc3)cn12` [Example 24, 3-(2-Methoxyphenyl)-6-phenyl-[1,2,4]triazolo[4,3-a]pyridine], the IC50 in assay [1] (Homo sapiens), in assay [2] (Homo sapiens), in assay [3] (setting [7]), in assay [4] (Homo sapiens) and in assay [5] (setting [8]) was above 10000 nM each time.
With `COc1ccccc1-c1nnc2ccc(-c3ccc(C(F)(F)F)cc3)cn12` [Example 27, 3-(2-Methoxyphenyl)-6-(4-trifluoromethylphenyl)-[1,2,4]triazolo[4,3-a]pyridine], the 50% inhibitory concentration (IC50) in assay [1] (Homo sapiens) is 2640 nM; in assay [2] (Homo sapiens), 9630 nM; in assay [3] (setting [7]), 2250 nM; in assay [4] (Homo sapiens) it was 4260 nM; in assay [5] (setting [8]), 3820 nM.
Turning to `CCc1ccc(-c2ccc3nnc(-c4ccccc4OC)n3c2)cc1` [Example 7, 6-(4-Ethylphenyl)-3-(2-methoxyphenyl)-[1,2,4]triazolo[4,3-a]pyridine], the IC50 amounted to 136 nM in assay [1] (Homo sapiens); 217 nM in assay [2] (Homo sapiens); 59 nM in assay [3] (setting [7]); 158 nM in assay [4] (Homo sapiens); 220 nM in assay [5] (setting [8]).
